According to PMC4331650 (Biochimica et Biophysica Acta, 2014):

What was measured:
F256A CLC-Ka/barttin = target: T1, F256A CLC-Ka/barttin (Homo sapiens, UniProt P51800, F256A); assay: NFA effect on F256A CLC-Ka/barttin, whole-cell patch clamp in HEK293 cells; assay type: cell-based
T1 sequence (P51800 1-687 F256A): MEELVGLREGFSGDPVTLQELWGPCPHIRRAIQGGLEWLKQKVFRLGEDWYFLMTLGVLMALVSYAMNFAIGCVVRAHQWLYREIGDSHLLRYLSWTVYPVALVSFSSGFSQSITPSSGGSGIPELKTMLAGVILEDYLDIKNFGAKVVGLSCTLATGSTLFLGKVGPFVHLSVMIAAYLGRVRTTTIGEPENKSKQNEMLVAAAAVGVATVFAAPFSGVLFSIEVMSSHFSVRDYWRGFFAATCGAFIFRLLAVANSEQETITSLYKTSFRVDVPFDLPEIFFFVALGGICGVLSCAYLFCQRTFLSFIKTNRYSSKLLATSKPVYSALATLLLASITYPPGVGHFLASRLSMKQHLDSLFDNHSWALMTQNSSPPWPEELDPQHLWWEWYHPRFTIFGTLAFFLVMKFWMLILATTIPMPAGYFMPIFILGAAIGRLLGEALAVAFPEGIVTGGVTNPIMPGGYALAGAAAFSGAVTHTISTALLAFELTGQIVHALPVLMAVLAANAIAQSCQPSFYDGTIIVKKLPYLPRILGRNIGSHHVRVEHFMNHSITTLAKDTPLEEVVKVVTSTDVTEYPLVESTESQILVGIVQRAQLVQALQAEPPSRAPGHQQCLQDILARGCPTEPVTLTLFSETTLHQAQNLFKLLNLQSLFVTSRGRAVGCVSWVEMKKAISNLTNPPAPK
T1 sequence (Q8WZ55 1-320 partner): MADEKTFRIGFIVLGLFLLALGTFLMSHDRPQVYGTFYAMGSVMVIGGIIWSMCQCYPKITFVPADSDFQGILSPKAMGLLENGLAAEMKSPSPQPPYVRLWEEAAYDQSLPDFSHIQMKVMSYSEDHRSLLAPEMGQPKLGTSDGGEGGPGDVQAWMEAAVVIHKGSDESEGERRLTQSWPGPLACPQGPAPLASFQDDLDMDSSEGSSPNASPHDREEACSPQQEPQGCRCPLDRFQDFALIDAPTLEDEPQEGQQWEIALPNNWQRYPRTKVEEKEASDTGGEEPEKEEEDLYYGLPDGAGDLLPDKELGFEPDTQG

hCLC-Kb = settings: [NFA]ext up to 2 mM; cited from earlier work

effect of NFA on currents (F256A CLC-Ka/barttin; 20 μM NFA): increased
effect of NFA on currents (F256A CLC-Ka/barttin; 500 μM NFA): inhibited
[NFA]ext up to which potentiation is seen (F256A CLC-Ka/barttin; inhibition at higher [NFA]ext): up to 200 μM
SMILES: O=C(O)c1cccnc1Nc1cccc(C(F)(F)F)c1 [NFA, niflumic acid]
effect on hCLC-Kb (hCLC-Kb): potentiated
